For 28 compounds, Ki results are on record in US20250026765A1, “SPIROHETEROCYCLE DERIVATIVE HAVING SEROTONIN RECEPTOR BINDING ACTIVITY” (Shionogi & Co., Ltd., priority 2021, published 2025).

Assay [1] has as its target human recombinant 5-HT2A receptor (Homo sapiens (Human), UniProt P28223). The experiment in a line: 5-HT2A receptor binding inhibition test ([3H]-Ketanserin). As to conditions: Jump-In HEK cell membrane, 25° C. 1.5 hours. The protocol: Test Example 1: 5-HT2A Receptor Binding Inhibition Test
(§1) (Each Experimental Condition)
Cell membrane: 15 μg of Jump-In HEK cell membrane (expressing human recombinant 5-HT2A receptor) per well
(§2) Assay buffer: Tris-HCl 50 mmol/L (pH 7.4) containing NaCl 120 mmol/L, MgCl2·6H2O 1 mmol/L, KCl 5 mmol/L, 0.1% BSA and CaCl2 2 mmol/L
Radioactive ligand: [^3H]-Ketanserin with a final concentration of around Kd value calculated by the following method
Non-specific ligand: Serotonin HCl with a final concentration of 500 μmol/L
(§3) The Kd value is calculated when the lot of cell membrane is changed. In advance, 0.5 μL of a 1 mmol/L compound for non-specific binding calculation dissolved in DMSO or DMSO is dispensed into a microplate, and the cell membrane is diluted with an Assay buffer. The radioactive ligand solution is serially diluted and the count is confirmed with a liquid scintillator. Assay buffer containing diluted cell membrane is dispensed into a microplate at 50 μL/well. Then, the radioactive ligand solution is dispensed into a microplate at 50 μL/well, and the plate is sealed. It is allowed to stand at room temperature (25° C.) for 1.5 hours. During this period, 50 mmol/L Tris-HCl (pH 7.4) is dispensed into a GF/B UniFilter plate at 50 μL/well and allowed to stand at 4° C. for 1 hour or longer. After that, filtration is performed with Cell harvester (PerkinElmer). The radioactive ligand solution is dispensed into an empty well of the GF/B UniFilter plate at 10 μL/well. After the GF/B UniFilter plate is dried at room temperature, MicroScinti 20 is dispensed into the GF/B UniFilter plate at 50 μL/well to seal the plate. The GF/B UniFilter plate is allowed to stand overnight at room temperature. The radioactivity of [^3H]-Ketanserin bound to the 5-HT2A receptor is measured using Microbeta2 (PerkinElmer) at a measurement time of 1 min/well. The Saturation curve is drawn from the measured value, and the Kd value is calculated from the slope of the Scatchard Plot.
(§4) (Binding Test of the Compound According to the Present Invention)
In advance, 0.5 μL of the compound solution dissolved in DMSO is dispensed into a microplate, and the cell membrane and the hot ligand are diluted with Assay buffer, respectively. Then, the Assay buffer containing the diluted cell membrane is dispensed into a microplate at 50 μL/well. Then, the radioactive ligand solution is dispensed into a microplate at 50 μL/well, and the plate is sealed. Then, it is allowed to stand at room temperature (25° C.) for 1.5 hours. During this period, 50 mmol/L Tris-HCl (pH 7.4) is dispensed into a GF/B UniFilter plate at 50 μL/well and allowed to stand at 4° C. for 1 hour or longer. After that, filtration is performed with Cell harvester (PerkinElmer). After the GF/B UniFilter plate is dried at room temperature, MicroScinti 20 is dispensed into the GF/B UniFilter plate at 50 μL/well to seal the plate. The GF/B UniFilter plate is allowed to stand overnight at room temperature. The radioactivity of [^3H]-Ketanserin bound to the 5-HT2A receptor is measured using Microbeta2 (PerkinElmer) at a measurement time of 1 min/well. The non-specific binding is calculated from the radioactivity of [^3H]-Ketanserin in the presence of 500 μmol/L Serotonin HCl which is the unlabeled ligand, and the total binding is calculated from the radioactivity of [^3H]-Ketanserin in the absence of the compound according to the present invention (Vehicle). Finally, the Ki value is calculated from the dose-response curve.
(§5) (The binding activity of the compound according to the present invention is calculated from the following binding inhibition rate (%).)
(§6) [formula] • a; mean cpm of non-specific binding • b; average cpm of total binding • c; cpm in the presence of the test compound

Assay [2] has as its target human recombinant 5-HT2C receptor (Homo sapiens (Human), UniProt P28335). The experiment in a line: 5-HT2C receptor binding inhibition test ([3H]-Mesulergine). The conditions noted are these: Jump-In HEK cell membrane, 37° C. 2 hours. The protocol: Test Example 2: 5-HT2C Receptor Binding Inhibition Test
as §1
Cell membrane: 0.5 μg of Jump-In HEK cell membrane (expressing human recombinant 5-HT2C receptor) per well
as §2
Radioactive ligand: [^3H]-Mesulergine with a final concentration of around Kd value calculated by the following method
Non-specific ligand: Serotonin HCl with a final concentration of […]
as §3, with “37° C.” for “room temperature (25° C.)”, “2” for “1.5”, “[^3H]-Mesulergine” for “[^3H]-Ketanserin”, “5-HT2C” for “5-HT2A”
as §4
In advance, 0.5 μL of the compound solution dissolved in DMSO is dispensed into a microplate, and the cell membrane and the hot ligand are diluted with Assay buffer, respectively. Then, the Assay buffer containing the diluted cell membrane is dispensed into a microplate at 50 μL/well. Then, the radioactive ligand solution is dispensed into a microplate at 50 μL/well, and the plate is sealed. Then, it is allowed to stand at 37° C. for 2 hours. During this period, 50 mmol/L Tris-HCl (pH 7.4) is dispensed into a GF/B UniFilter plate at 50 μL/well and allowed to stand at 4° C. for 1 hour or longer. After that, filtration is performed with Cell harvester (PerkinElmer). After the GF/B UniFilter plate is dried at room temperature, MicroScinti 20 is dispensed into the GF/B UniFilter plate at 50 μL/well, and the plate is sealed. The GF/B UniFilter plate is allowed to stand overnight at room temperature. The radioactivity of [^3H]-Mesulergine bound to the 5-HT2C receptor is measured using Microbeta2 (PerkinElmer) at a measurement time of 1 min/well. The non-specific binding is calculated from the radioactivity of […] in the presence of 500 μmol/L Serotonin HCl which is the unlabeled ligand, and the total binding is calculated from the radioactivity of [^3H]-Mesulergine in the absence of the compound according to the present invention (Vehicle). Finally, the Ki value is calculated from the dose-response curve.
as §5, §6

What is called Ki is a dissociation constant, usually derived from enzyme kinetics or from competition with a known ligand.

Like-named read-outs stand apart in the source and are kept apart here.

human recombinant 5-HT2A receptor, sequence (P28223 whole entry): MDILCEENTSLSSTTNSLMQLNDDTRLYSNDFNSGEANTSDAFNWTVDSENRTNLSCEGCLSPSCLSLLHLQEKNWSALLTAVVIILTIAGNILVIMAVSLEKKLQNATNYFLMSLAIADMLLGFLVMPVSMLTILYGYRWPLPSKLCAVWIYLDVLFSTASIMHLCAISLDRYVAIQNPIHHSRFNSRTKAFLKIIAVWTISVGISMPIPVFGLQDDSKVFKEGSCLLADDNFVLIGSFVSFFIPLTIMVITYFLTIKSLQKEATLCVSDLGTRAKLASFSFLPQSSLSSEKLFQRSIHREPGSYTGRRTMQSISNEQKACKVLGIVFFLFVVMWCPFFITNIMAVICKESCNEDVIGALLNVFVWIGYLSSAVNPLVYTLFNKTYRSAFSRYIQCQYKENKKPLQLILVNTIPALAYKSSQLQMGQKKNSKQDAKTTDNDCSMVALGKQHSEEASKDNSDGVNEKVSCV
human recombinant 5-HT2C receptor, sequence (P28335 33-458): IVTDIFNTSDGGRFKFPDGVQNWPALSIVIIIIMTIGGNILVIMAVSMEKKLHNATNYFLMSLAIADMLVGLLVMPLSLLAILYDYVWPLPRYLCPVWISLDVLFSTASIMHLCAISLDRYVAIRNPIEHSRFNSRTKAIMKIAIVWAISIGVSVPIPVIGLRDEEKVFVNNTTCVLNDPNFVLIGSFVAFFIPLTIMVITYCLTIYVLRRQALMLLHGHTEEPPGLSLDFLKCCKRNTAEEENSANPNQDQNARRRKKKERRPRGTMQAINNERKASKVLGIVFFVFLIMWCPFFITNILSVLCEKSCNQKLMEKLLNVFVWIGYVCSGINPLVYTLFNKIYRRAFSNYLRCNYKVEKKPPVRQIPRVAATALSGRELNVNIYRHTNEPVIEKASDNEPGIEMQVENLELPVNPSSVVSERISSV

For the compound `CCCOc1ccc(CC2=NOC3(CCN(C)CC34CC4)N2Cc2cc(C)n(C)n2)cc1` (racemic) [Compound I-029], the Ki in assay [1] (read-out: h-5-HT2A Ki) and in assay [2] (read-out: h-5-HT2C Ki) was less than 10 nM each time.
Consider `Cc1cc(CN(Cc2ccc(OCC(C)C)cc2)C2=NOC3(CCN(C)CC3)N2)no1` [Compound I-075], for which the Ki in assay [1] (read-out: h-5-HT2A Ki) is less than 10 nM; in assay [2] (read-out: h-5-HT2C Ki), 100 to 500 nM.
`CCCOc1ccc(CNC2=NOC3(CCN(C)CC34CC4)N2Cc2ccn(C)n2)cc1` (racemic) [Compound I-040]: the Ki in assay [1] (read-out: h-5-HT2A Ki) and in assay [2] (read-out: h-5-HT2C Ki) was 100 to 500 nM throughout.
`CN1CCC2(CC1)NC(N(Cc1coc(C3CC3)n1)Cc1ccc(OCC(F)(F)F)cc1F)=NO2` [Compound I-108]: the inhibition constant (Ki) in assay [1] (read-out: h-5-HT2A Ki) and in assay [2] (read-out: h-5-HT2C Ki) was less than 10 nM in each case.
For `CC(C)COc1ccc(CCC2=NOC3(CCN(C)CC3)N2Cc2ccc(F)cc2)cc1` [Compound I-008], the Ki was in the range of 10 to 100 nM in assay [1] (read-out: h-5-HT2A Ki) and 100 to 500 nM in assay [2] (read-out: h-5-HT2C Ki).
On to `CN1CCC2(ON=C(Cc3ccc(OC4CC4)cc3)N2Cc2ccn(C)n2)C2(CC2)C1` (racemic) [Compound I-041], for which the Ki in assay [1] (read-out: h-5-HT2A Ki) and in assay [2] (read-out: h-5-HT2C Ki) was less than 10 nM throughout.
Consider `CCCCc1ccc(CN(Cc2cnn(C)n2)C2=NOC3(CCN(C)CC3)N2)cc1` [Compound I-133], for which the inhibition constant Ki in assay [1] (read-out: h-5-HT2A Ki) and in assay [2] (read-out: h-5-HT2C Ki) was less than 10 nM each time.
As for `CC(C)COc1ccc(CN(Cc2ccn(C)n2)C2=NC(=O)C3(CCN(C)CC3)N2)cc1` [Compound I-033], the Ki was found to be 10.1 nM in assay [1] (read-out: human serotonin 5-HT2A receptor binding activity Ki) and 19 nM in assay [2] (read-out: human serotonin 5-HT2C receptor binding activity Ki).
For the compound `CC(C)COc1ccc(CN(Cc2ccc(F)cn2)C2=NC(=O)C3(CCN(C)CC34CC4)N2)cc1` (racemic) [Compound I-042], the Ki in assay [1] (read-out: h-5-HT2A Ki) and in assay [2] (read-out: h-5-HT2C Ki) was 10 to 100 nM each time.
With `Cc1nc(CN(Cc2cc3ccc(Br)cc3s2)C2=NOC3(CCN(C)CC3)N2)co1` [Compound I-102], the Ki in assay [1] (read-out: h-5-HT2A Ki) and in assay [2] (read-out: h-5-HT2C Ki) was less than 10 nM in each case.
In the case of `CCCOc1ccc(CN(Cc2ccn(C)n2)C2=NOC3(CCN(C)CC3)N2)cc1` [Compound I-014], the values for the Ki in assay [1] (read-out: h-5-HT2A Ki) and in assay [2] (read-out: h-5-HT2C Ki) were less than 10 nM and 10 to 100 nM, respectively.
The corresponding values for `Cc1nc(CN(Cc2ccc(OCC(F)F)cc2)C2=NOC3(CCN(C)CC3)N2)co1` [Compound I-066] are less than 10 nM and less than 10 nM.
For `Cc1cc(CN(Cc2ccc(OCC(C)C)cc2)C2=NOC3(CCN(C)CC3)N2)on1` [Compound I-076], the Ki in assay [1] (read-out: h-5-HT2A Ki) fell in the range of 10 to 100 nM; in assay [2] (read-out: h-5-HT2C Ki) it was 100 to 500 nM.
In the same order, the values of `Cc1nc(CN(Cc2ccc(OCC(C)(F)F)cc2)C2=NOC3(CCN(C)CC3)N2)co1` [Compound I-065] are less than 10 nM and less than 10 nM.
`Cc1nc(CN(Cc2ccc(OCC(C)C)cc2)C2=NC(=O)C3(CCN(C)CC3)N2)co1` [Compound I-039]: the Ki in assay [1] (read-out: h-5-HT2A Ki) is 10 to 100 nM; in assay [2] (read-out: h-5-HT2C Ki) it was less than 10 nM.
Regarding `Cc1nc(CN(Cc2cccs2)C2=NOC3(CCN(C)CC3)N2)co1` [Compound I-069], the inhibition constant (Ki) is 10 to 100 nM in assay [1] (read-out: h-5-HT2A Ki) and less than 10 nM in assay [2] (read-out: h-5-HT2C Ki).
As to `CC(C)COc1ccc(CN(Cc2cnn(C)c2)C2=NOC3(CCN(C)CC3)N2)cc1` [Compound I-046], the inhibition constant (Ki) lay within 10 to 100 nM in assay [1] (read-out: h-5-HT2A Ki) and 100 to 500 nM in assay [2] (read-out: h-5-HT2C Ki).
The corresponding values for `Cc1nc(CN(Cc2ccc(OCC(C)C)c(F)c2)C2=NOC3(CCN(C)CC3)N2)co1` [Compound I-127] are less than 10 nM and less than 10 nM.
In the same order, the values of `Cc1cc(CN2C(Cc3ccc(OC(F)F)cc3)=NOC23CCN(C)CC32CC2)nn1C` (racemic) [Compound I-035] are less than 10 nM and less than 10 nM.
In the same order, the values of `CC(C)COc1ccc(CN(Cc2cnn(C)n2)C2=NOC3(CCN(C)CC3)N2)cc1` [Compound I-072] are less than 10 nM and less than 10 nM.
Regarding `CC(C)COc1ccc(CN(Cc2ccc(F)cc2)C2=NOC3(CCN(C)CC3)N2)cc1` [Compound I-055], the inhibitory constant (Ki) is less than 10 nM in assay [1] (read-out: h-5-HT2A Ki) and 10 to 100 nM in assay [2] (read-out: h-5-HT2C Ki).
On to `CC(C)COc1ccc(CN(Cc2ccn(C3CC3)n2)C2=NOC3(CCN(C)CC3)N2)cc1` [Compound I-100], for which the inhibition constant (Ki) in assay [1] (read-out: h-5-HT2A Ki) was less than 10 nM; in assay [2] (read-out: h-5-HT2C Ki), 10 to 100 nM.
In the same order, the values of `Cc1nc(CN(Cc2ccc(OCC3CC3)cc2)C2=NOC3(CCN(C)CC3)N2)co1` [Compound I-079] are less than 10 nM and less than 10 nM.
In the same order, the values of `CCc1nc(CN(Cc2ccc(OCC(C)C)cc2)C2=NOC3(CCN(C)CC3)N2)co1` [Compound I-068] are less than 10 nM and less than 10 nM.
In the same order, the values of `CC(C)COc1ccc(CC2=NOC3(CCN(C)CC3)N2Cc2ccc(F)cc2O)cc1` [Compound I-004] are less than 10 nM and 10 to 100 nM.
As for `CCCCc1ccc(CN(Cc2coc(C)n2)C2=NOC3(CCN(C)CC3)N2)cc1` [Compound I-077], the inhibition constant Ki in assay [1] (read-out: h-5-HT2A Ki) and in assay [2] (read-out: h-5-HT2C Ki) was less than 10 nM each time.
On to `Cc1nc(CN(Cc2csc3ccccc23)C2=NOC3(CCN(C)CC3)N2)co1` [Compound I-122], for which the inhibitory constant (Ki) in assay [1] (read-out: h-5-HT2A Ki) and in assay [2] (read-out: h-5-HT2C Ki) was less than 10 nM throughout.
`CN1CCC2(CC1)NC(N(Cc1ccc(OCC(F)(F)F)c(F)c1)Cc1coc(C3CC3)n1)=NO2` [Compound I-116]: the inhibition constant Ki in assay [1] (read-out: h-5-HT2A Ki) and in assay [2] (read-out: h-5-HT2C Ki) was less than 10 nM in each case.
